Patent US8377663B2, “Cosmetic composition comprising hydroxymethionine and 3-aminopropanesulfonic acid” (Sederma, S.A.S., priority 2007, dated 2013)
Marks after values point to notes of the source that are not given here. One block for each compound: values may come before it.

Key:
[1] = tested on: Human HaCat keratinocytes; test: Stimulation of keratinocyte proliferation (Hoescht DNA labeling); format: cell-based; details: 14 days; for Keratinocyte proliferation vs. control cell proliferation: n = 3
Experimental: The stimulation of cell growth can be readily measured by uptake of a fluorescent probe that intercalates between DNA bases (Hoescht method). There is a proportional relationship between the quantity of fluorescent DNA taken up and the number of cells. […] Cells and products were incubated during 14 days (37° C./5% CO2), the mediums being renewed at regular intervals. Then lawns were rinsed and broke before being labeled by means of the colouring agent inserting of the DNA HOESCHT 33258. The intensity of the labeling is proportional to the quantity of DNA of the cellular samples. A curve of calibration allows to correlate the intensity of the labeling to the number of cells.

filaggrin = test: Filaggrin synthesis by keratinocytes (fluorescence-image analysis); format: cell-based, human; details: for Filaggrin synthesis, Fluorescence: Table 3, HaCat; for Filaggrin synthesis, Fluorescence / Filaggrin synthesis, Fluorescence, result per 106 cells: calcium-deficient medium; for Filaggrin synthesis, Fluorescence / Filaggrin synthesis, Fluorescence, result per 106 cells / increase in filaggrin synthesis on the control value: 14 days; for Filaggrin synthesis, Fluorescence, result per 106 cells: Table 2, HaCat
Experimental: HaCat cells were cultured to confluence, in a deficient medium in calcium, in the presence or absence of hydroxymethionine-Ca for 14 days. The culture period was rather long in order to enable the keratinocytes to pursue differentiation up to a rather late stage in order to detect the emergence of filaggrin. Quantification was conducted by fluorescence-image analysis after labeling filaggrin with a specific probe (polyclonal antibody, Santa-Cruz). […]

keratin K10 = test: Synthesis of keratin 10 by keratinocytes (fluorescence image analysis); format: cell-based, human; details: 14 days; for Synthesis of keratin 10, Fluorescence: HaCat, calcium-poor medium
Experimental: HaCat cells were cultured in the presence or absence of hydroxymethionine-Ca, 3-aminopropanesulfonic Acid alone, and both compounds in a calcium-poor culture medium for 14 days. The incubation time was rather long to enable the keratinocytes to pursue differentiation up to a late stage, thus enabling detection of the emergence of keratin K10. Quantification was conducted by fluorescence image analysis using 1 specific fluorescent probe (anti-keratin monoclonal antibody (Monosan) for keratin K10).

Keratinocytes = test: Osmolar protection: cell vitality by MTT after hyperosmotic stress; format: cell-based; details: D-Sorbitol 200 mM, 0.06%
Experimental: Keratinocytes were cultured in an appropriate culture medium. Then, cells were exposed to hyperosmolar shock induced by D-Sorbitol 200 mM. […] The osmoprotector effect of the products is estimated by quantifying the cellular survival. MTT Method is used: the measure of the survival is made at T0, T24 h and T48 h after the beginning of the stress. An analysis of the variances is realized on the data. In case of identity of the variances, a test of Student for matched series is then realized on the averages.

[2] = tested on: Normal Human Keratinocyte (KHN) cells; test: Genes expression profile by DNA array on human keratinocyte culture; format: cell-based
Experimental: The genes expression profile modulated by hydroxymethionine was studied on human keratinocyte culture, cultured in the presence or absence of hydroxymethionine-Ca by DNA array studies allowing the detection of the main genes.
Normal Human Keratinocyte (KHN) cells were cultured to confluence before receiving 5×10E-3% hydroxymethionine or 5×10E-2% hydroxymethionine diluted in the culture medium. The negative controls are medium without hydroxymethionine. The KHN were incubated (37° C./5% CO2) at different times before that the culture was stopped to allow the extraction of the total RNA. Then, the quantitation of the mRNA of interest is allowed by the use of ADN biochip and quantified by means of software of interpretations of the fluorescent signals recorded by the sensors.

HaCat cells = test: Intracellular lipid synthesis (red oil staining of lipid vesicles); format: cell-based, human; details: 14 days; for Formation of lipid vesicles, Red-oil staining, result per 106 cells: HaCat
Experimental: The intracellular lipid vesicles characterize a late phase of differentiation. HaCat cells were cultured in the presence or absence of hydroxymethionine-Ca for 14 days. The incubation duration was rather long in order to enable the keratinocytes to pursue differentiation up to a relatively late stage.
Quantification was conducted by image analysis after red oil staining of the lipid vesicles.

transglutaminase = test: Transglutaminase mRNA by quantitative RT-PCR; format: cell-based, human; details: 8 days; for Transglutaminase mRNA, Ct, result per 106 cells: HaCat
Experimental: HaCat cells were cultured in the presence or absence of hydroxymethionine-Ca for 8 days. The quantitative RT-PCR method used on the mRNA for transglutaminase is sensitive and yielded results as of 8 days of culture. Quantification consisted in analysis of the cycle threshold (Ct) parameter, which reflects the amplification power used to obtain a detectable signal.
Amplification is exponantial and of order 1.7 (recopying effectiveness for each cycle).

[3] = concentration 0.02% (mix: each)
[4] = concentration 0.05% (mix: each)

Structure (SMILES): NCCCS(=O)(=O)O [3-aminopropanesulfonic acid]
effect on cell proliferation ([1]; 0.02% and 0.05%): no stimulant effect
Keratinocyte proliferation vs. control cell proliferation [1, 3]: 0%
Keratinocyte proliferation vs. control cell proliferation [1, 4]: 0%
Filaggrin synthesis, Change (%) vs control (filaggrin; Table 3, 14 days, 0.02%): 0.8 X
Filaggrin synthesis, Change (%) vs control (filaggrin; Table 3, 14 days, 0.05%): X 1
Filaggrin synthesis, Change (%) vs control (filaggrin; Table 3, 14 days, 0.06%): 0.8 X
Filaggrin synthesis, Fluorescence (filaggrin; 0.02%): 1.2 +/− 0.6 arbitrary unit
Filaggrin synthesis, Fluorescence (filaggrin; 0.05%): 1.5 +/− 0.7 arbitrary unit
Filaggrin synthesis, Fluorescence (filaggrin; 0.06%): 1.2 +/− 0.6 arbitrary unit
differentiating effect, keratin 10 (keratin K10): devoid of differentiating effect
Synthesis of keratin 10, Fluorescence (keratin K10; 0.02%): 0.1 +/− 0.05 arbitrary unit
Synthesis of keratin 10, Fluorescence (keratin K10; 0.05%): <0.1 arbitrary unit
Synthesis of keratin 10, Fluorescence (keratin K10; 0.06%): 0.1 +/− 0.06 arbitrary unit
Variation of the number of cells with regard to the control after a hyperosmotic stress (MTT) (Keratinocytes; T0): +8%
Variation of the number of cells with regard to the control after a hyperosmotic stress (MTT) (Keratinocytes; T24 h): +180%
Variation of the number of cells with regard to the control after a hyperosmotic stress (MTT) (Keratinocytes; T48 h): +247%

Transglutaminase mRNA, Change (%) vs control (transglutaminase; 0.015%): +322%*
Transglutaminase mRNA, Change (%) vs control (transglutaminase; 0.03%): +661%*
Transglutaminase mRNA, Change (%) vs control (transglutaminase; 0.06%): +814%*
increase in mRNA coding for transglutaminase (transglutaminase; dose-dependent): 8 fold
Structure (SMILES): CSCCC(O)C(=O)O (centres unmarked) [Hydroxymethionine-Ca (AHMC), 2-hydroxy-4-(thiomethyl)butanoic acid]
properties shown by the gene expression study [2]: proliferative, pro-differentiation and proteinogenic properties but also DNA repairing properties
activation of the gene HK2 involved in the proliferation ([2]; 5×10E-3% or 5×10E-2%): marked activation
activation of the gene endothelin 1 involved in the cellular differentiation ([2]; 5×10E-3% or 5×10E-2%): marked activation
activity of the gene CACNA1C (subunit alpha 1 of the voltage-dependent calcium channel) ([2]; 5×10E-3% or 5×10E-2%): increased activity
activity of the gene for RYR (ryanodine receptor) ([2]; 5×10E-3% or 5×10E-2%): increased activity
differentiation activities (ornithine decarboxylase, keratins, involucrin, intermediate filaments, claudin genes) ([2]; 5×10E-3% or 5×10E-2%): strongly expressed
gene TGD (thymidine DNA glycolase) ([2]; 5×10E-3% or 5×10E-2%): activated
Keratinocyte proliferation vs. control cell proliferation [1, 3]: 223%
Keratinocyte proliferation vs. control cell proliferation [1, 4]: 170%
Filaggrin synthesis, Change (%) vs control (filaggrin; Table 2, 14 days, 0.015%): +379%
Filaggrin synthesis, Change (%) vs control (filaggrin; Table 2, 14 days, 0.03%): +1072%
Filaggrin synthesis, Change (%) vs control (filaggrin; Table 2, 14 days, 0.06%): +943%
Filaggrin synthesis, Fluorescence, result per 106 cells (filaggrin; 0.015%): 1.9 ± 1.4 arbitrary unit
Filaggrin synthesis, Fluorescence, result per 106 cells (filaggrin; 0.03%): 4.6 ± 3.1 arbitrary unit
Filaggrin synthesis, Fluorescence, result per 106 cells (filaggrin; 0.06%): 4.1 ± 3.5 arbitrary unit
Filaggrin synthesis, Change (%) vs control (filaggrin; Table 3, 14 days, 0.02%): 3.3 X
Filaggrin synthesis, Change (%) vs control (filaggrin; Table 3, 14 days, 0.05%): 3.4 X
Filaggrin synthesis, Change (%) vs control (filaggrin; Table 3, 14 days, 0.06%): 2.7 X
Filaggrin synthesis, Fluorescence (filaggrin; 0.02%): 5.0 arbitrary unit
Filaggrin synthesis, Fluorescence (filaggrin; 0.05%): 5.2 arbitrary unit
Filaggrin synthesis, Fluorescence (filaggrin; 0.06%): 4.2 arbitrary unit
increase in filaggrin synthesis on the control value (filaggrin; concentration equivalent to 0.06%): ≤ 10 fold
increase in filaggrin synthesis on the control value (filaggrin; lowest concentration): 3.7 fold
production of filaggrine (filaggrin; used concentrations, 14 days after contact): strongly stimulates
Synthesis of keratin 10, Change vs control (keratin K10; 0.02%): X 45
Synthesis of keratin 10, Change vs control (keratin K10; 0.05%): X 57
Synthesis of keratin 10, Change vs control (keratin K10; 0.06%): X 44
Synthesis of keratin 10, Fluorescence (keratin K10; 0.02%): 4.0 arbitrary unit
Synthesis of keratin 10, Fluorescence (keratin K10; 0.05%): 5.1 +/− 1.3 arbitrary unit
Synthesis of keratin 10, Fluorescence (keratin K10; 0.06%): 3.9 +/− 1.7 arbitrary unit
Formation of lipid vesicles, Change (%) vs control (HaCat cells; 0.015%): +77%
Formation of lipid vesicles, Change (%) vs control (HaCat cells; 0.03%): +58%
Formation of lipid vesicles, Change (%) vs control (HaCat cells; 0.06%): +66%
Formation of lipid vesicles, Red-oil staining, result per 106 cells (HaCat cells; 0.015%): 2.8 ± 0.3 arbitrary unit
Formation of lipid vesicles, Red-oil staining, result per 106 cells (HaCat cells; 0.03%): 2.5 ± 0.7 arbitrary unit
Formation of lipid vesicles, Red-oil staining, result per 106 cells (HaCat cells; 0.06%): 2.6 ± 0.6 arbitrary unit
Transglutaminase mRNA, Ct, result per 106 cells (transglutaminase; 0.015%): 23.7 ± 0.3 amplification unit
Transglutaminase mRNA, Ct, result per 106 cells (transglutaminase; 0.03%): 22.9 ± 0.1 amplification unit
Transglutaminase mRNA, Ct, result per 106 cells (transglutaminase; 0.06%): 22.5 ± 0.3 amplification unit
Variation of the number of cells with regard to the control after a hyperosmotic stress (MTT) (Keratinocytes; T0): +54%
Variation of the number of cells with regard to the control after a hyperosmotic stress (MTT) (Keratinocytes; T24 h): +108%
Variation of the number of cells with regard to the control after a hyperosmotic stress (MTT) (Keratinocytes; T48 h): +112%
